Measured values from EPA's CvTdb concentration-time database.

How the values were obtained:
[1] = tested on: Rat; experiment: concentration in plasma after dosing; conditions: dosed: 2-Hydroxy-4-methoxybenzophenone, 250 mg/kg, oral, Female, F344
[2] = tested on: Rat; experiment: concentration in plasma after dosing; conditions: dosed: 2-Hydroxy-4-methoxybenzophenone, 100 mg/kg, oral, Female, F344
[3] = tested on: Mouse; experiment: concentration in plasma after dosing; conditions: 2 h; dosed: 2-Hydroxy-4-methoxybenzophenone; 250 mg/kg; oral; Female; B6C3F1
[4] = tested on: Mouse; experiment: concentration in plasma after dosing; conditions: dosed: 2-Hydroxy-4-methoxybenzophenone, 100 mg/kg, oral, Female, B6C3F1
[5] = tested on: Mouse; experiment: concentration in plasma after dosing; conditions: 10 min; dosed: 2-Hydroxy-4-methoxybenzophenone; 250 mg/kg; oral; Male; B6C3F1
[6] = tested on: Rat; experiment: concentration in plasma after dosing; conditions: dosed: 2-Hydroxy-4-methoxybenzophenone, 8 mg/kg, iv, Female, F344
[7] = tested on: Mouse; experiment: concentration in plasma after dosing; conditions: 0.25 h; dosed: 2-Hydroxy-4-methoxybenzophenone; 500 mg/kg; oral; Male; B6C3F1
[8] = tested on: Rat; experiment: concentration in plasma after dosing; conditions: 10 min; dosed: Nitrite; 80 mg/kg; oral; Female; F344
[9] = tested on: Rat; experiment: concentration in plasma after dosing; conditions: 0.5 h; dosed: Nitrite; 40 mg/kg; oral; Female; F344
[10] = tested on: Rat; experiment: concentration in plasma after dosing; conditions: 5 min; dosed: Nitrite; 40 mg/kg; oral; Female; Harlan Sprague-Dawley
[11] = tested on: Rat; experiment: concentration in plasma after dosing; conditions: 10 min; dosed: Nitrite; 80 mg/kg; oral; Female; F344; remark: listed apart in the source
[12] = tested on: Rat; experiment: concentration in plasma after dosing; conditions: 10 min; dosed: Nitrite; 40 mg/kg; oral; Female; F344
[13] = tested on: Rat; experiment: concentration in plasma after dosing; conditions: dosed: Nitrite, 80 mg/kg, oral, Female, F344
[14] = tested on: Rat; experiment: concentration in plasma after dosing; conditions: 2 min; dosed: Nitrite; 40 mg/kg; oral; Female; F344
[15] = tested on: Rat; experiment: concentration in plasma after dosing; conditions: dosed: Nitrite, 40 mg/kg, oral, Female, F344
[16] = tested on: Rat; experiment: concentration in plasma after dosing; conditions: 5 min; dosed: Nitrite; 80 mg/kg; oral; Female; F344
[17] = tested on: Rat; experiment: concentration in kidney after dosing; conditions: 3 h; dosed: Fluorotelomer alcohol 8+2; 24 mg/kg; oral; Male; Harlan Sprague Dawley
[18] = tested on: Rat; experiment: concentration in kidney after dosing; conditions: 1 h; dosed: Fluorotelomer alcohol 8+2; 80 mg/kg; oral; Female; Harlan Sprague Dawley
[19] = tested on: Rat; experiment: concentration in brain after dosing; conditions: 3 h; dosed: Perfluorooctanoic acid; 80 mg/kg; oral; Female; Harlan Sprague Dawley
[20] = tested on: Rat; experiment: concentration in liver after dosing; conditions: 528 h; dosed: Perfluorooctanoic acid; 12 mg/kg; oral; Male; Harlan Sprague Dawley
[21] = tested on: Rat; experiment: concentration in kidney after dosing; conditions: 24 h; dosed: Perfluorooctanoic acid; 12 mg/kg; oral; Male; Harlan Sprague Dawley
[22] = tested on: Rat; experiment: concentration in kidney after dosing; conditions: 192 h; dosed: Perfluorooctanoic acid; 12 mg/kg; oral; Male; Harlan Sprague Dawley
[23] = tested on: Rat; experiment: concentration in liver after dosing; conditions: 0.5 h; dosed: Fluorotelomer alcohol 8+2; 80 mg/kg; oral; Female; Harlan Sprague Dawley
[24] = tested on: Rat; experiment: concentration in liver after dosing; conditions: 12 h; dosed: Fluorotelomer alcohol 8+2; 80 mg/kg; oral; Female; Harlan Sprague Dawley
[25] = tested on: Rat; experiment: concentration in liver after dosing; conditions: 24 h; dosed: Perfluorooctanoic acid; 80 mg/kg; oral; Female; Harlan Sprague Dawley
[26] = tested on: Rat; experiment: concentration in liver after dosing; conditions: 1200 h; dosed: Perfluorooctanoic acid; 12 mg/kg; oral; Male; Harlan Sprague Dawley
[27] = tested on: Rat; experiment: concentration in kidney after dosing; conditions: 48 h; dosed: Perfluorooctanoic acid; 80 mg/kg; oral; Female; Harlan Sprague Dawley
[28] = tested on: Rat; experiment: concentration in liver after dosing; conditions: 1 h; dosed: Potassium Perfluorobutane Sulfonate; 20 mg/kg; oral; Female; Harlan Sprague Dawley
[29] = tested on: Rat; experiment: concentration in plasma after dosing; conditions: dosed: Potassium Perfluorobutane Sulfonate, 4 mg/kg, oral, Male, Harlan Sprague Dawley
[30] = tested on: Rat; experiment: concentration in brain after dosing; conditions: 1 h; dosed: Potassium Perfluorobutane Sulfonate; 20 mg/kg; oral; Male; Harlan Sprague Dawley
[31] = tested on: Rat; experiment: concentration in plasma after dosing; conditions: dosed: Potassium Perfluorobutane Sulfonate, 4 mg/kg, iv, Male, F344
[32] = tested on: Rat; experiment: concentration in plasma after dosing; conditions: dosed: Potassium Perfluorobutane Sulfonate, 4 mg/kg, oral, Male, Harlan Sprague Dawley; remark: listed apart in the source
[33] = tested on: Rat; experiment: concentration in kidney after dosing; conditions: 12 h; dosed: Potassium Perfluorobutane Sulfonate; 20 mg/kg; oral; Male; Harlan Sprague Dawley
[34] = tested on: Rat; experiment: concentration in plasma after dosing; conditions: dosed: Potassium Perfluorobutane Sulfonate, 4 mg/kg, oral, Male, Harlan Sprague Dawley; remark: listed apart in the source
[35] = tested on: Rat; experiment: concentration in plasma after dosing; conditions: 0.5 h; dosed: Potassium Perfluorobutane Sulfonate; 4 mg/kg; iv; Male; F344
[36] = tested on: Rat; experiment: concentration in plasma after dosing; conditions: 1.5 h; dosed: Potassium Perfluorobutane Sulfonate; 4 mg/kg; oral; Male; Harlan Sprague Dawley

COc1ccc(C(=O)c2ccccc2)c(O)c1 [2-Hydroxy-4-methoxybenzophenone]
Conditions | concentration in plasma [ng/mL]
[1], 3 h | 81.6
[1], 10 min | 13
[2], 0.25 h | 84.6
[2], 4 h | 16.2
[4], 0.25 h | 151
[4], 2 h | 13.9
[4], 2.5 min | 29.6
[4], 3 h | 9.13
[4], 10 min | 62.3
[6], 2 h | 111
[6], 10 min | 2560

Conditions | concentration in plasma [ng/mL]
[3] | 832
[5] | 93.1
[7] | 468

O=N[O-] [Nitrite]
Conditions | concentration in plasma [ng/mL]
[8] | 15400
[9] | 6500
[10] | 4100
[11] | 31800
[12] | 26600
[14] | 7300
[16] | 9600

concentration in plasma [ng/mL]
Conditions | 0.5 h | 1 h | 2 h | 4 h
[13] | 11900 | – | – | 2400
[15] | – | 8300 | 3600 | –

O=C(O)C(F)(F)C(F)(F)C(F)(F)C(F)(F)C(F)(F)C(F)(F)C(F)(F)F [Perfluorooctanoic acid]
Conditions | concentration in brain [ng/g] | concentration in kidney [ng/g] | concentration in liver [ng/g]
[17] | – | 317 | –
[18] | – | 568 | –
[19] | 3490 | – | –
[20] | – | – | 19500
[21] | – | 29700 | –
[22] | – | 21000 | –
[23] | – | – | 579
[24] | – | – | 487
[25] | – | – | 10000
[26] | – | – | 4980
[27] | – | 703 | –

O=S(=O)([O-])C(F)(F)C(F)(F)C(F)(F)C(F)(F)F.[K+] [Potassium Perfluorobutane Sulfonate]
Conditions | concentration in brain [ng/g] | concentration in kidney [ng/g] | concentration in liver [ng/g] | concentration in plasma [ng/mL]
[28] | – | – | 30300 | –
[30] | 1210 | – | – | –
[33] | – | 3890 | – | –
[35] | – | – | – | 12000
[36] | – | – | – | 12600

Conditions | concentration in plasma [ng/mL]
[29], 1 h | 13800
[29], 24 h | 245
[31], 0.25 h | 15900
[31], 6 h | 47.5
[32], 0.25 h | 3220
[32], 6 h | 9970
[34], 0.5 h | 6060
[34], 9 h | 5230
